Experimental data from BindingDB's records for doi:10.1016/s0006-2952(02)01515-0 (Aventis Pharma, 2003).

Experiments:
D(3) dopamine receptor = D(3) dopamine receptor (Homo sapiens, UniProt P35462)
[1] = target: 5-hydroxytryptamine receptor 2A (Homo sapiens, UniProt P28223)
Histamine H1 receptor = Histamine H1 receptor (Cavia porcellus, UniProt P31389)
Histamine H2 receptor = Histamine H2 receptor (Cavia porcellus, UniProt P47747)
[2] = target: Gamma-aminobutyric acid (GABA) B receptor 1 (Rattus norvegicus, UniProt Q6MFX8)
[3] = target: 5-hydroxytryptamine receptor 7 (Homo sapiens, UniProt P34969)
D(4) dopamine receptor = D(4) dopamine receptor (Homo sapiens, UniProt P21917)
[4] = target: 5-hydroxytryptamine receptor 3A (Mus musculus, UniProt P23979)
[5] = target: 5-hydroxytryptamine receptor 3A (Homo sapiens, UniProt P46098)
Chain of 5-hydroxytryptamine receptor 3A (Homo sapiens, UniProt P46098) (P46098 whole entry): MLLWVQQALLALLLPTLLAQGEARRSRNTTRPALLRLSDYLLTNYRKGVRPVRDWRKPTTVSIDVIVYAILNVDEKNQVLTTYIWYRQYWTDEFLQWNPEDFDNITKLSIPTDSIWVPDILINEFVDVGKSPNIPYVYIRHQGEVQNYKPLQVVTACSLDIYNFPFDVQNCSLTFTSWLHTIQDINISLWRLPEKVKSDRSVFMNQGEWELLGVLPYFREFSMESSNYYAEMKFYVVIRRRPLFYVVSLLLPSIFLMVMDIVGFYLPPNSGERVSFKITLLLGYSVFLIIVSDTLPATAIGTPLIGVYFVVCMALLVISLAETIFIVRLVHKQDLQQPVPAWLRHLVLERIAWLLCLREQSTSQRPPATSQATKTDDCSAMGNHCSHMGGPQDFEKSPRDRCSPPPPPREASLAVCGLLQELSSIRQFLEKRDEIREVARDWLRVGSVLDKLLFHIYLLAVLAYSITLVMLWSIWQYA

[6] = target: Muscarinic acetylcholine receptor M3 (Homo sapiens, UniProt P20309)
Chain of Muscarinic acetylcholine receptor M3 (P20309 whole entry): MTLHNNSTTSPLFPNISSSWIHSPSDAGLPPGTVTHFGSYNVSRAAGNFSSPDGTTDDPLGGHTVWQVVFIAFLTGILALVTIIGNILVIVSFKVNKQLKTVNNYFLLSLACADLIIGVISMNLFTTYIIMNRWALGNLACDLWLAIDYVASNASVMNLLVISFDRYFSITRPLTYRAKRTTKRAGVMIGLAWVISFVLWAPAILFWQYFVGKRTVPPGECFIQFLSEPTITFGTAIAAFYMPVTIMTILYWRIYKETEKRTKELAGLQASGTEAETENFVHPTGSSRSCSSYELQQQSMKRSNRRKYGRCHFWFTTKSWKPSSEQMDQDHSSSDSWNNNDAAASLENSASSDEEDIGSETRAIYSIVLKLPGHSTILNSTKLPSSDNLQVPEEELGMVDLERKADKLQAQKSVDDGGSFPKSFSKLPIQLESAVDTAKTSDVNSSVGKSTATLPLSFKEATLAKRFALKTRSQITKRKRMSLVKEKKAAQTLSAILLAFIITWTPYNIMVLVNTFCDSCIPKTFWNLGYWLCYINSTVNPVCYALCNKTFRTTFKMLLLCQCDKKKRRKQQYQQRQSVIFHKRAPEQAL

D(2) dopamine receptor = D(2) dopamine receptor (Homo sapiens, UniProt P14416)
Chain of D(2) dopamine receptor (P14416 whole entry): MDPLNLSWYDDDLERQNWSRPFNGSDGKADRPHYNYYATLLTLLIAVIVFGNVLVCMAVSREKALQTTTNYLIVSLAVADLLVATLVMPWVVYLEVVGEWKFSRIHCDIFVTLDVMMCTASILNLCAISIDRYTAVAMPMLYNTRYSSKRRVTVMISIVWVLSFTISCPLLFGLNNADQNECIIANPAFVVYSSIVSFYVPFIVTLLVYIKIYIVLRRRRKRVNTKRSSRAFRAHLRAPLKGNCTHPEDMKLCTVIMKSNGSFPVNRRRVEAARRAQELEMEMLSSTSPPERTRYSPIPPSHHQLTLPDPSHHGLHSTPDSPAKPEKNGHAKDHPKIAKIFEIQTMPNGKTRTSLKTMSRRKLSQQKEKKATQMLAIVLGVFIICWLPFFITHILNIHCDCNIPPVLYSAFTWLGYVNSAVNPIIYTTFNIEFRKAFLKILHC

[7] = target: Alpha-1A adrenergic receptor (Rattus norvegicus, UniProt P43140)
D(1A) dopamine receptor = D(1A) dopamine receptor (Homo sapiens, UniProt P21728)
Chain of D(1A) dopamine receptor (P21728 whole entry): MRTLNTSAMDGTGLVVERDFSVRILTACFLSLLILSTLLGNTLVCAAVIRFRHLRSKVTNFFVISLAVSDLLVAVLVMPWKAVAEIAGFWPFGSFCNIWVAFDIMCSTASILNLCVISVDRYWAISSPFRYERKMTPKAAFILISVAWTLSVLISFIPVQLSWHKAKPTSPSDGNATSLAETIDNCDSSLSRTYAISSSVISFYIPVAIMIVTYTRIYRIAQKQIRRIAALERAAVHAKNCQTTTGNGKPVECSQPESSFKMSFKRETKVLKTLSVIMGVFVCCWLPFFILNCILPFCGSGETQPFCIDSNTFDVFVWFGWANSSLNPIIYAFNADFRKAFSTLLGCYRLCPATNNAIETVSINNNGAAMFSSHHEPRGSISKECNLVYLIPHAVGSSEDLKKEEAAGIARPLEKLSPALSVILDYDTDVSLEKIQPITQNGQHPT

[8] = target: Muscarinic acetylcholine receptor M2 (Homo sapiens, UniProt P08172)
Chain of Muscarinic acetylcholine receptor M2 (P08172 whole entry): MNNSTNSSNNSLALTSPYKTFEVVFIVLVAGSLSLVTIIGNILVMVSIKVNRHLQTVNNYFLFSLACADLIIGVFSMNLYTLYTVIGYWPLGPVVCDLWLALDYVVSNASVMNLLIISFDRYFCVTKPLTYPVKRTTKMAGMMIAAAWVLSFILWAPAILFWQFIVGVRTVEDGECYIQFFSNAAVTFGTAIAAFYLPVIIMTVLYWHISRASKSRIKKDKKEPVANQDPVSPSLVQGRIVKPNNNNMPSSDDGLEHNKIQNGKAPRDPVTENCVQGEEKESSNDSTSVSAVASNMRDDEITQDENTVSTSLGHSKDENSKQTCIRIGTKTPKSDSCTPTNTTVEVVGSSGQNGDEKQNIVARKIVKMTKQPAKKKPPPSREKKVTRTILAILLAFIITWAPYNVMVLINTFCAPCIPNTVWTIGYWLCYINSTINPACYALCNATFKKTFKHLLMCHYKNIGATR

[9] = target: Muscarinic acetylcholine receptor M1 (Homo sapiens, UniProt P11229)
Chain of Muscarinic acetylcholine receptor M1 (P11229 whole entry): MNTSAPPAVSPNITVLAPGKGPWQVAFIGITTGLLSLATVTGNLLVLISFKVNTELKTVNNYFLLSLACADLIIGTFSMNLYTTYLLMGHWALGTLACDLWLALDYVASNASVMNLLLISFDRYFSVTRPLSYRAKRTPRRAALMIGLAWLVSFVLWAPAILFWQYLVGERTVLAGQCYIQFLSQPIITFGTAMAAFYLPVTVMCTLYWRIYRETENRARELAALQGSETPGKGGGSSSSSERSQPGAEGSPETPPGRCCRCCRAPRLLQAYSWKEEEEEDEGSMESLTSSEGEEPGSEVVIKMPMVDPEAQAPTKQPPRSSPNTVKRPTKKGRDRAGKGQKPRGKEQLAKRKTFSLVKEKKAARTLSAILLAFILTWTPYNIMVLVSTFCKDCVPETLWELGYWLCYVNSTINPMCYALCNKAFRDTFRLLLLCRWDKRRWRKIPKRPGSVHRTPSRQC

[10] = target: Gamma-aminobutyric acid receptor subunit alpha-1 (Rattus norvegicus, UniProt P62813)
[11] = target: Alpha-2C adrenergic receptor (Rattus norvegicus, UniProt P22086)
Chain of Alpha-2C adrenergic receptor (P22086 whole entry): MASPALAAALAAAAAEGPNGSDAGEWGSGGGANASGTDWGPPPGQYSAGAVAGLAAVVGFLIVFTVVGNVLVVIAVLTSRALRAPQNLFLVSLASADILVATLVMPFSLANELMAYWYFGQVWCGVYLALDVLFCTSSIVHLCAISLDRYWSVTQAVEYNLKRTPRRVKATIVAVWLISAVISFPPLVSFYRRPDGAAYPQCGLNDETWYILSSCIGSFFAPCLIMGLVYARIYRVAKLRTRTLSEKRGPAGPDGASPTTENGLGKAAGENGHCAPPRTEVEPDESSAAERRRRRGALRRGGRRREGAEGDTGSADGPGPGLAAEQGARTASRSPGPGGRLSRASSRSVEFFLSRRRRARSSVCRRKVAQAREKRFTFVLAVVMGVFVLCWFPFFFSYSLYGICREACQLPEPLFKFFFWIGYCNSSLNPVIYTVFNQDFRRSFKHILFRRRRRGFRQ

[12] = target: Muscarinic acetylcholine receptor M4 (Homo sapiens, UniProt P08173)
Chain of Muscarinic acetylcholine receptor M4 (P08173 whole entry): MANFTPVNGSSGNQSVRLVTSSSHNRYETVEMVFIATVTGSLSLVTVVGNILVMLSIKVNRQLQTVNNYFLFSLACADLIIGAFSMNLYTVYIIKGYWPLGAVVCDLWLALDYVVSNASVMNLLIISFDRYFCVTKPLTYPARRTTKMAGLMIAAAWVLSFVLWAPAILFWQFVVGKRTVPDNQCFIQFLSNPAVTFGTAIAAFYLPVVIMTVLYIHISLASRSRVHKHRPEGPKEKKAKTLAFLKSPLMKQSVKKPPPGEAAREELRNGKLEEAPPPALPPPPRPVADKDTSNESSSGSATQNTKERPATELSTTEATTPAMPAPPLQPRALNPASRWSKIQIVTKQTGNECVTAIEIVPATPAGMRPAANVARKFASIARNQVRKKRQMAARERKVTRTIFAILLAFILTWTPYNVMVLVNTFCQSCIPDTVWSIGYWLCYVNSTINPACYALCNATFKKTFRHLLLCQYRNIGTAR

Hrh3 protein = Hrh3 protein (Rattus norvegicus, UniProt Q5PPG3)
Chain of Hrh3 protein (Q5PPG3 whole entry): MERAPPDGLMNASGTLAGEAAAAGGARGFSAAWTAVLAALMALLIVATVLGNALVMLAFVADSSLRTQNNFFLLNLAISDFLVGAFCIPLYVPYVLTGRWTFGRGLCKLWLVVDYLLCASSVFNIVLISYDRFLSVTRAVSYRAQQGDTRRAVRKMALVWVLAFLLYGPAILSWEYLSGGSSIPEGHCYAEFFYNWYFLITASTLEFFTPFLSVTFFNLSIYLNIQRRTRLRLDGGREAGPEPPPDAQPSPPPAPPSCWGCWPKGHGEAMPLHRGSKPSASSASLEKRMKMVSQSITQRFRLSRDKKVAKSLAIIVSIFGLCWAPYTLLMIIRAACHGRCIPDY

[13] = target: Muscarinic acetylcholine receptor M5 (Homo sapiens, UniProt P08912)
[14] = target: 5-hydroxytryptamine receptor 2C (Homo sapiens, UniProt P28335)

Chain of D(3) dopamine receptor (P35462 as listed by the source): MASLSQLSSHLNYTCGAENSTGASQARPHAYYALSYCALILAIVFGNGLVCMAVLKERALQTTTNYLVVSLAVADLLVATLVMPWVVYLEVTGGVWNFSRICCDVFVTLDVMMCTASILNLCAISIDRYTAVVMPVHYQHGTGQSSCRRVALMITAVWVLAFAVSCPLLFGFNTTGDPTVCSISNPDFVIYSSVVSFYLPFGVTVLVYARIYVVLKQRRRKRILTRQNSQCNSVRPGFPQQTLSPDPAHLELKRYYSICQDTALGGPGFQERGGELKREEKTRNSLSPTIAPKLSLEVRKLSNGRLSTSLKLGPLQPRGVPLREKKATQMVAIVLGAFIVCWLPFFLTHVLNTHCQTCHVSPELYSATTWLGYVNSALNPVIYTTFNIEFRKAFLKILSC
Chain of Histamine H2 receptor (P47747 whole entry): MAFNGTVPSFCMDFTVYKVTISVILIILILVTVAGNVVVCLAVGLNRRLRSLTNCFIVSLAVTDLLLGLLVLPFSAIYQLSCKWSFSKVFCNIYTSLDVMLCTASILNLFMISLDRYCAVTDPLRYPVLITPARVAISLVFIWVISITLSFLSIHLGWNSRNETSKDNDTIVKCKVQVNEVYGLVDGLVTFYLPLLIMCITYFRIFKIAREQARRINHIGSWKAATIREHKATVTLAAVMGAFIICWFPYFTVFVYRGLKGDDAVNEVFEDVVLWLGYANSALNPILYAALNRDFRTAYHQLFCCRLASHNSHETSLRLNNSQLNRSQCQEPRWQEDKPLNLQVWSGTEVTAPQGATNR

Compound: CC(CN(C)C)CN1c2ccccc2Sc2ccc(C#N)cc21 (stereo unspecified) [CAS_62865]
- Ki (D(3) dopamine receptor): 2.5 nM
- Ki [1]: 1.5 nM
- Ki (Histamine H1 receptor): 9.3 nM
- Ki (Histamine H2 receptor): 351 nM
- Ki [2]: > 10000 nM
- Ki [3]: 22 nM
- Ki (D(4) dopamine receptor): 5.3 nM
- Ki [4]: 75 nM
- Ki [5]: 2940 nM
- Ki [6]: 32 nM
- Ki (D(2) dopamine receptor): 5.8 nM
- Ki [7]: 2.3 nM
- Ki (D(1A) dopamine receptor): 3.8 nM
- Ki [8]: 42 nM
- Ki [9]: 13 nM
- Ki [10]: > 10000 nM
- Ki [11]: 1320 nM
- Ki [12]: 12 nM
- Ki (Hrh3 protein): > 10000 nM
- Ki [13]: 35 nM
- Ki [14]: 12 nM
